Results as given in PubChem BioAssay AID179 (DTP/NCI, 2004).
Calls of active or inactive are those of the source.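 Rule for the calls: active = compounds giving half or more protection of infected cells from virus-caused growth loss, again on retest; inactive = the rest.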

Tested on: CEM cells HIV-1 protection, formazan growth assay
Assay: NCI AIDS Antiviral Assay
Settings: for IC50: measured here: growth of uninfected CEM cells
Summary of the method: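 Screen of anti-HIV-1 activity in human CEM cells using a formazan-based growth measurement at five drug concentrations. Hits with 50% or greater protection were repeated, and confirmation required reproducible complete protection.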

SMILES | EC50 [µM] | IC50 [µM] | outcome
C/C(CC(=O)Nc1cc(C)ccc1C)=N\NC(=O)c1ccncc1 | > 398 | 20.9 | –
Cn1c(=O)cc2[nH]c3ccccc3n2c1=O | > 63.1 | > 63.1 | –
O=C1OC(=O)C2C3CC(C4N=NN(c5ccccc5)C34)C12 (configuration not stated) | > 200 | > 200 | –
COc1ccc2c(c1)-c1c(c3ccccc3n1CCN1CCOCC1)CC2 | – | – | inactive
NNc1ncnc(NN)c1Br | > 200 | 56.2 | –
Cc1ccc(C)c(NC(=O)CC/C(=N\NC(=O)C(=O)NN)C(C)C(=O)c2ccc(O)cc2)c1 (configuration not stated) | – | – | inactive
[O-]/[N+](=N/c1ncc(-c2ccccc2)cn1)c1ncc(-c2ccccc2)cn1 | > 200 | 31.6 | –
C1=Nc2ccc(cc2)-c2ccc(cc2)N=Cc2ccccc2OCc2cccc(n2)COc2ccccc21 | > 200 | > 200 | –
Oc1ccc(O)c2c1N=NC21c2ccccc2Oc2ccccc21 | > 112 | 33.1 | –
COC(=O)[C@@H]1C[C@@H](OS(=O)(=O)c2ccc(C)cc2)CN1S(=O)(=O)c1ccc(C)cc1 | > 200 | 33.9 | –
COc1ccc(-c2cc(C)n(C3OC(CO)C(O)C(O)C3O)c(=S)c2C#N)cc1 (configuration not stated) | > 200 | 126 | –
CSC1=Nc2cc3c(cc2C(=O)N2CC(OC(C)=O)CC12)OCO3 (configuration not stated) | > 200 | > 200 | –
COC(=O)c1c(C)cccc1/C=C1\Cc2cc(C)cc(C)c2C1=O | > 200 | 151 | –
O=C(CC1(CC(=O)NCc2ccccc2)OCCO1)NCc1ccccc1 | – | – | inactive
C[C@]12CC[C@H](CCC=C(c3cc(Cl)c(O)c(C(=O)O)c3)c3cc(Cl)c(O)c(C(=O)O)c3)C[C@@H]1CC[C@@H]1[C@@H]2CC[C@]2(C)[C@@H](CCC=C(c3cc(Cl)c(O)c(C(=O)O)c3)c3cc(Cl)c(O)c(C(=O)O)c3)CC[C@@H]12 | 6.61 | 110 | –
CC1C2CC=CC(=O)[C@@]2(C)CCC12OCCO2 (some centres not stated) | – | – | inactive
N#Cc1cccc(Nc2ccccc2SSc2ccccc2Nc2cccc(C#N)c2)c1 | > 58.9 | 4.79 | –
c1cc(C[S+]2CCCC2)sc1C[S+]1CCCC1 | – | – | inactive
CC(C)=CCN1Cc2cc(Cl)cc3[nH]c(=S)n(c23)CC1C (configuration not stated) | – | 26.9 | active
COC(=O)C1(Cc2cccc(C)c2)Cc2c(C)cccc2C1=O (configuration not stated) | > 200 | 32.4 | –
COP(=O)(O)C(N)Cc1c[nH]c2ccccc12 (configuration not stated) | > 200 | > 200 | –

SMILES | EC50 [µM] | IC50 [µM] | outcome
Cc1cc(S(=O)(=O)Nc2nnc3c4c(C)csc4ncn23)c(S)cc1Cl | > 200 | 110 | –
O=C(CCCCC(=O)OCC1COCO1)OCC1COCO1 (configuration not stated) | > 200 | > 200 | –
O=c1n(/N=C/c2ccccc2)c(=O)n2n1C1C=CC2CC1 | > 200 | > 200 | –
O=C(c1ccccc1)c1cn(/N=C\c2ccccc2)c(=O)nc1-c1ccccc1 | – | – | inactive
COc1ccc(C2CC(=O)c3cc(OC)ccc3O2)cc1 (configuration not stated) | > 200 | > 200 | –
CC(C)c1cccc(C(C)C)c1NC(=O)C(=O)Cc1nc2ccc([N+](=O)[O-])cc2[nH]c1=O | > 490 | 89.1 | –
CC(C(=O)N1C(=O)N(C(=O)C(C)C(O)c2ccccc2)C2CCCCC21)C(O)c1ccccc1 (configuration not stated) | > 200 | 120 | –
N#Cc1c(N)nc(SCc2ccccc2)c(C#N)c1-c1ccc(O)cc1 | > 200 | 10 | –
Cc1nc(N)sc1C(=O)/C=C/c1ccc(/C=C/C(=O)c2sc(NC(=O)CCCCCCCCC(=O)Nc3nc(C)c(C(=O)/C=C/c4ccc(/C=C/C(=O)c5sc(N)nc5C)cc4)s3)nc2C)cc1 | > 251 | 162 | –
CC(=O)OCC1OC(n2cc([N+](=O)[O-])c(=O)[nH]c2=O)C(OC(C)=O)C(OC(C)=O)C1OC(C)=O (configuration not stated) | > 513 | > 513 | –
CCN(CC)c1ccc2cc(C(=O)NCc3ccccc3)c(=N)oc2c1 | > 200 | 11 | –
O=C(O)c1cc2cc3c(cc2c2ccccc12)OCO3 | > 490 | 282 | –
O=C(NC/C(Cl)=C/Cl)Nc1cccc2c1CCCC2 | > 200 | 50.1 | –
Cc1nc2ccccc2c(=O)n1Cc1nc2ccccc2[nH]1 | – | – | inactive
CSc1c(C#N)c(O)n(-c2ccc(Cl)cc2)c(=O)c1C#N | > 200 | 33.1 | –
CCOC(=O)C1=NN(c2ccccc2)C2=CC(C)=NN(C)C(=S)N21 | > 200 | > 200 | –
CCN(CC)c1ccc(N=O)c(O)c1 | > 200 | 8.71 | –
OC1(c2ccc(-c3ccccc3)cc2)c2ccccc2C2=NCCN21 (configuration not stated) | > 200 | > 100 | –
COC(C)(C)C1(O)CCC(C)CC1=O (configuration not stated) | > 100 | > 100 | –
O=C(C(=O)n1ccc2ccccc21)n1ccc2ccccc21 | > 200 | 178 | –
Cc1cs/c(=N\C(P(=O)(O)O)P(=O)(O)O)n1C | > 100 | > 100 | –
